The structures appear in SMILES notation.

Consider nine compounds from patent US20180148418A1, “AMIDO-SUBSTITUTED CYCLOHEXANE DERIVATIVES” (Bayer Pharma Aktiengesellschaft, priority 2015, published 2018).

The target of the assay is T1, TNKS1 (Homo sapiens, UniProt O95271).
T1 construct: purchased BPS Bioscience, San Diego, USA 80579 (TNKS1 Histone Ribosylation Assay Kit)
T1 sequence (O95271 1-1327): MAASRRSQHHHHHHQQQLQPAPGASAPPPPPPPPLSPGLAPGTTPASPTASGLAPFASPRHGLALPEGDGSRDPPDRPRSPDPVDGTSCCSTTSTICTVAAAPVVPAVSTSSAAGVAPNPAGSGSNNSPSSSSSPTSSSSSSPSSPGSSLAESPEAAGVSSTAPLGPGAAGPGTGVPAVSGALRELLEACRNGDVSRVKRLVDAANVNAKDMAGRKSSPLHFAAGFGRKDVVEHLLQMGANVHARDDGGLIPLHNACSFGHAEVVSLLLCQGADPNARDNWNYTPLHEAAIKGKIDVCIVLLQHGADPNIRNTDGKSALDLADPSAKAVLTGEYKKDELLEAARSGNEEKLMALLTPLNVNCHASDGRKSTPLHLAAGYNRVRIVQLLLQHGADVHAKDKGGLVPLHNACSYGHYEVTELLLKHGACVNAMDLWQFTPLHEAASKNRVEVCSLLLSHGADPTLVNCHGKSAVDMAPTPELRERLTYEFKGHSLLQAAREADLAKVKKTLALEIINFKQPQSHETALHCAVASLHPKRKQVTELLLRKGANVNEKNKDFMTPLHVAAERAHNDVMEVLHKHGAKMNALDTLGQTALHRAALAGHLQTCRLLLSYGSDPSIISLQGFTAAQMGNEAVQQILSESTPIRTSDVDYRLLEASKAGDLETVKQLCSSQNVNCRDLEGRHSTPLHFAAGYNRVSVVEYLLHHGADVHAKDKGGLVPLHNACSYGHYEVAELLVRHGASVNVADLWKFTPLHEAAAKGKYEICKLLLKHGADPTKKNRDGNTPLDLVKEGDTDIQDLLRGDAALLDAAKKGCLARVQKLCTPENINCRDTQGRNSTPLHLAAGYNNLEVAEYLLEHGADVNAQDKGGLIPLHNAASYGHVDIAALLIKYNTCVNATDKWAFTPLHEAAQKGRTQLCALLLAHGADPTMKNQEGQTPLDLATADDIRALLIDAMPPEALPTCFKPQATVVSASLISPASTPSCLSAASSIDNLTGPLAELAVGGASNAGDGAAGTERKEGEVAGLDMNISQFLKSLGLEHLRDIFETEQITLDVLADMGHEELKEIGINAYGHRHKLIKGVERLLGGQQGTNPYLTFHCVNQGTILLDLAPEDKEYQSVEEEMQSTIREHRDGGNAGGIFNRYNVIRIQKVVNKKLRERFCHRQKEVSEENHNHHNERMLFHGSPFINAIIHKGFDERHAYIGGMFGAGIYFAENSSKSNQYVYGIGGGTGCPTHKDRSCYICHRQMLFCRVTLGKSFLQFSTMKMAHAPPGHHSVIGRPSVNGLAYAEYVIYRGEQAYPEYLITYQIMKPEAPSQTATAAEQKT
Description: TNKS1 Assay B (auto-parsylation, [3H]-NAD+ SPA). It counts as biochemical. As to conditions: 6 nM TNKS1, auto-parsylation, over night at room temperature.

For the compound `Cc1cc(N2CCC[C@]3(CC[C@@H](NC(=O)c4cnn5cccnc45)CC3)C2=O)c(Cl)cc1F` [Example 300, N-[(trans)-2-(2-chloro-4-fluoro-5-methylphenyl)-1-oxo-2-azaspiro[5.5]undec-9-yl]pyrazolo[1,5-a]pyrimidine-3-carboxamide], the midpoint of inhibition, the IC50, lay at 0.094 µM. This lies in the double-digit nanomolar range.
To `Cc1cc(N2CCC[C@]3(CC[C@@H](NC(=O)c4cnc5cccnn45)CC3)C2=O)c(Cl)cc1F` [Example 301, N-[(trans)-2-(2-chloro-4-fluoro-5-methylphenyl)-1-oxo-2-azaspiro[5.5]undec-9-yl]imidazo[1,2-b]pyridazine-3-carboxamide] belongs 0.13 µM.
To `Cc1cc(C)n2ncc(C(=O)N[C@H]3CC[C@@]4(CCCN(c5cc(C)c(F)cc5Cl)C4=O)CC3)c2n1` [Example 302, N-[(trans)-2-(2-chloro-4-fluoro-5-methylphenyl)-1-oxo-2-azaspiro[5.5]undec-9-yl]-5,7-dimethylpyrazolo[1,5-a]pyrimidine-3-carboxamide] belongs 0.17 µM; to `COCCNC(=O)c1nc[nH]c1C(=O)N[C@H]1CC[C@@]2(CCN(c3cc(C)c(F)cc3Cl)C2=O)CC1` [Example 334, N^5-[(trans)-2-(2-chloro-4-fluoro-5-methylphenyl)-1-oxo-2-azaspiro[4.5]dec-8-yl]-N^4-(2-methoxyethyl)-1H-imidazole-4,5-dicarboxamide], 0.012 µM.
Then `COC(=O)c1cc(C)nc2c(C(=O)N[C@H]3CC[C@H](C(=O)Nc4c(F)cc(F)cc4Cl)CC3)cnn12` [Example 351, methyl 3-({trans-4-[(2-chloro-4,6-difluorophenyl)carbamoyl]cyclohexyl}carbamoyl)-5-methylpyrazolo[1,5-a]pyrimidine-7-carboxylate], with 0.15 µM; and `COC(=O)c1cc(C)nc2c(C(=O)N[C@H]3CC[C@H](C(=O)Nc4ccc(F)cc4Cl)CC3)cnn12` [Example 352, methyl 3-({trans-4-[(2-chloro-4-fluorophenyl)carbamoyl]cyclohexyl}carbamoyl)-5-methylpyrazolo[1,5-a]pyrimidine-7-carboxylate], with 0.35 µM.
`Cc1c(C(C)(C)O)cnc2c(C(=O)N[C@H]3CC[C@H](C(=O)Nc4ccc(F)cc4Cl)CC3)cnn12` [Example 359, N-{trans-4-[(2-chloro-4-fluorophenyl)carbamoyl]cyclohexyl}-6-(2-hydroxypropan-2-yl)-7-methylpyrazolo[1,5-a]pyrimidine-3-carboxamide] returned an IC50 greater than 10 µM.
Then `O=C(N[C@H]1CC[C@H](C(=O)Nc2ccc(F)cc2Cl)CC1)c1cnc2ccc(O)nn12` [Example 360, N-{trans-4-[(2-chloro-4-fluorophenyl)carbamoyl]cyclohexyl}-6-hydroxyimidazo[1,2-b]pyridazine-3-carboxamide], with 2.5 µM.
To `Cc1nc2c(C(=O)N[C@H]3CC[C@H](C(=O)Nc4c(F)cc(F)cc4Cl)CC3)cnn2c2c1CCC2` [Example 363, N-{trans-4-[(2-chloro-4,6-difluorophenyl)carbamoyl]cyclohexyl}-5-methyl-7,8-dihydro-6H-cyclopenta[e]pyrazolo[1,5-a]pyrimidine-3-carboxamide] belongs 0.057 µM.

By IC50 is commonly meant the concentration that gives 50% inhibition. Low readings indicate inhibition by little substance, high ones a need for much substance.
